Reference: patent US12662475B2, “Difluorocyclohexyl derivatives as IL-17 modulators” (UCB BIOPHARMA SRL, priority 2020, dated 2026)

Assays:
[1] = tested on: IL-17 induced IL-6 release from human dermal fibroblasts; assay: Inhibition of IL-17A induced IL-6 release from dermal fibroblast cell line (HDF cell line assay); format: cell-based
Procedure: Inhibition of IL-17A Induced IL-6 Release from Dermal Fibroblast Cell Line
The purpose of this assay is to test the neutralising ability to IL-17 proteins, in a human primary cell system.
The resultant IL-6 response was then measured using a homogenous time-resolved FRET kit from Cisbio. The kit utilises two monoclonal antibodies, one labelled with Eu-Cryptate (Donor) and the second with d2 or XL665 (Acceptor).
The ability of a compound to inhibit IL-17 induced IL-6 release from human dermal fibroblasts is measured in this assay.
The TrypLE was neutralised using complete medium (45 mL) and the cells were centrifuged at 300×g for 3 minutes. […] The cells were left for a minimum of three hours, at 37° C./5% CO2, to adhere to the plate.
10 μL from the aqueous dilution plate was transferred to the reagent plate containing 30 μL of the diluted cytokines, to give a 2.5% DMSO solution. The compounds were incubated with the cytokine mixtures for 1 h or 5 h at 37° C. After the incubation, 10 μL was transferred to the assay plate, to give a […] solution, then incubated for 18-20 h at 37° C./5% CO2.

[2] = molecular target: T1, interaction between IL-17A and soluble IL-17 Receptor A (IL-17RA) (Homo sapiens, UniProt Q16552); assay: IL-17 FRET assay; conditions: IL-17A binding to IL-17RA
T1 construct: made in house; host or cells: IL-17A-Fc: CHO SXE cells; IL-17RA: Expi HEK293 cells
T1 sequence (Q16552 24-155): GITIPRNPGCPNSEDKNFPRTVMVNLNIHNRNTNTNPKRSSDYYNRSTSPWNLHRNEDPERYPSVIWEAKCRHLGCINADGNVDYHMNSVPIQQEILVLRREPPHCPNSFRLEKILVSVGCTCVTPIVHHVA
Procedure: The purpose of this assay is to test the ability of compounds to disrupt the interaction between IL-17A and soluble IL-17 Receptor A (IL-17RA). The ability of a compound to inhibit IL-17A binding to IL-17RA is measured in this assay.
An IL-17AA-TEV-Human Fc construct was expressed in a CHO SXE cell system and purified by protein A chromatography and size exclusion. The protein was labelled with an amine reactive AlexaFluor 647 dye (Thermo Fisher #A20006), as per manufacturer's instruction.
Soluble IL-17RA (33-317)-HKH-TEV-Fc was expressed in an Expi HEK293 cell system and purified by protein A chromatography and size exclusion. The Fc tag was cleaved by TEV, producing IL-17RA (33-317)-HKH, and the protein was labelled with amine reactive terbium (Thermo Fisher #PV3581).
In assay buffer [Dulbecco's PBS (Sigma #14190-094), 0.05% P20 (Thermo Scientific #28320), 1 mg/mL BSA (Sigma #A2153-500G)] the following solutions were prepared:
• IL-17A-Fc-AF647 at 5 nM • IL-17RA-HKH-Tb at 5 nM
Compounds were serially diluted in DMSO before receiving an aqueous dilution into a 384 well dilution plate (Greiner #781281), to give a 25% DMSO solution.
IL-17A (10 μL) was added to a black low volume assay plate (Costar #4511) and diluted compound (5 μL) was transferred from the aqueous dilution plate. The cytokine and compound were allowed to incubate for 1 h, then IL-17RA (10 μL) was added. The plates were wrapped in foil and incubated at room temperature for 18-20 h with gentle shaking (<400 rpm) before being read on a Perkin Elmer Envision plate reader (Excitation: 330 nm; Emission 615/645 nm).
The final assay concentrations were IL-17A-AF647 2 nM and IL-17RA-Tb 2 nM, 5% DMSO.

| Structure (SMILES) | IC50 ([1]; Incubation Time 5 h) | IC50 [2] | IC50 ([1]; Incubation Time 1 h) |
| --- | --- | --- | --- |
| Cc1nonc1C(=O)N[C@H](c1nc2c(F)c(C(CC(F)F)C(=O)N3CC(F)(F)C3)ccc2[nH]1)C1CCC(F)(F)CC1 (mixture of isomers) [Example 3, N—[(S)-{5-[1-(3,3-Difluoroazetidine-1-carbonyl)-3,3-difluoropropyl]-4-fluoro-1H-benzimidazol-2-yl}(4,4-difluorocyclohexyl)methyl]-4-methyl-1,2,5-oxadiazole-3-carboxamide] | 25.1 nM | 25.1 nM |  |
| CC(C(=O)N1CC(F)(F)C1)c1ccc2[nH]c([C@@H](NC(=O)c3ccnn3C)C3CCC(F)(F)CC3)nc2c1F (mixture of isomers) [Example 20, N—[(S)-{5-[2-(3,3-Difluoroazetidin-1-yl)-1-methyl-2-oxoethyl]-4-fluoro-1H-benzimidazol-2-yl}(4,4-difluorocyclohexyl)methyl]-2-methylpyrazole-3-carboxamide] | 20 nM | 100 nM |  |
| COC(=O)N1CC[C@](C(=O)N2CC(F)(F)C(F)(F)C2)(c2ccc3[nH]c([C@@H](NC(=O)c4nonc4C)C4CCC(F)(F)CC4)nc3c2F)C1 (single isomer, unassigned) [Example 1] | 6.31 nM | 39.8 nM |  |
| COC(=O)N1CC[C@@](C(=O)N2CC(F)(F)C(F)(F)C2)(c2ccc3[nH]c([C@@H](NC(=O)c4nonc4C)C4CCC(F)(F)CC4)nc3c2F)C1 (single isomer, unassigned) [Example 2] | 10 nM | 39.8 nM |  |
| Cc1nonc1C(=O)N[C@H](c1nc2c(F)c([C@H](CC(F)F)C(=O)N3CC(F)(F)C3)ccc2[nH]1)C1CCC(F)(F)CC1 (single isomer, unassigned) [Example 4] | 15.8 nM | 39.8 nM |  |
| Cc1nonc1C(=O)N[C@H](c1nc2c(F)c([C@@H](CC(F)F)C(=O)N3CC(F)(F)C3)ccc2[nH]1)C1CCC(F)(F)CC1 (single isomer, unassigned) [Example 5] |  | 1580 nM | 1260 nM |
| C[C@H](C(=O)N1CC(F)(F)C1)c1ccc2[nH]c([C@@H](NC(=O)c3ccnn3C)C3CCC(F)(F)CC3)nc2c1F (single isomer, unassigned) [Example 21] | 15.8 nM | 25.1 nM |  |
| C[C@@H](C(=O)N1CC(F)(F)C1)c1ccc2[nH]c([C@@H](NC(=O)c3ccnn3C)C3CCC(F)(F)CC3)nc2c1F (single isomer, unassigned) [Example 22] | 316 nM | 316 nM |  |
| Cn1nccc1C(=O)N[C@H](c1nc2c(F)c(C(CC(F)F)C(=O)N3CC(F)(F)C3)ccc2[nH]1)C1CCC(F)(F)CC1 (stereo partly drawn) [Example 6, N—[(S)-{5-[1-(3,3-Difluoroazetidine-1-carbonyl)-3,3-difluoropropyl]-4-fluoro-1H-benzimidazol-2-yl}(4,4-difluorocyclohexyl)methyl]-2-methylpyrazole-3-carboxamide] | 25.1 nM | 79.4 nM |  |
| Cc1nonc1C(=O)N[C@H](c1nc2c(F)c(C(CC(F)(F)F)C(=O)N3CC(F)(F)C3)ccc2[nH]1)C1CCC(F)(F)CC1 (stereo partly drawn) [Example 7, N—[(S)-{5-[1-(3,3-Difluoroazetidine-1-carbonyl)-3,3,3-trifluoropropyl]-4-fluoro-1H-benzimidazol-2-yl}(4,4-difluorocyclohexyl)methyl]-4-methyl-1,2,5-oxadiazole-3-carboxamide] | 15.8 nM | 15.8 nM |  |
| Cn1nccc1C(=O)N[C@H](c1nc2c(F)c(C(CC(F)(F)F)C(=O)N3CC(F)(F)C3)ccc2[nH]1)C1CCC(F)(F)CC1 (stereo partly drawn) [Example 8, N—[(S)-{5-[1-(3,3-Difluoroazetidine-1-carbonyl)-3,3,3-trifluoropropyl]-4-fluoro-1H-benzimidazol-2-yl}(4,4-difluorocyclohexyl)methyl]-2-methylpyrazole-3-carboxamide] | 25.1 nM | 100 nM |  |
| Cc1nonc1C(=O)N[C@H](c1nc2c(F)c(C3(C(=O)N4CC(F)(F)C4)CCNCC3)ccc2[nH]1)C1CCC(F)(F)CC1 [Example 16, N—[(S)-{5-[4-(3,3-Difluoroazetidine-1-carbonyl)piperidin-4-yl]-4-fluoro-1H-benzimidazol-2-yl}(4,4-difluorocyclohexyl)methyl]-4-methyl-1,2,5-oxadiazole-3-carboxamide] | 79.4 nM | 126 nM |  |
| COC(=O)N1CCC(C(=O)N2CC(F)(F)C2)(c2ccc3[nH]c([C@@H](NC(=O)c4nonc4C)C4CCC(F)(F)CC4)nc3c2F)CC1 [Example 17, Methyl 4-(3,3-difluoroazetidine-1-carbonyl)-4-(2-{(S)-(4,4-difluorocyclohexyl)[(4-methyl-1,2,5-oxadiazole-3-carbonyl)amino]methyl}-4-fluoro-1H-benzimidazol-5-yl)-piperidine-1-carboxylate] | 12.6 nM | 50.1 nM |  |
| [2H]C([2H])([2H])n1nccc1C(=O)N[C@H](c1nc2c(F)c(C3(C(=O)N4CC(F)(F)C4)CC(F)(F)C3)ccc2[nH]1)C1CCC(F)(F)CC1 [Example 18, N—[(S)-{5-[1-(3,3-Difluoroazetidine-1-carbonyl)-3,3-difluorocyclobutyl]-4-fluoro-1H-benzimidazol-2-yl}(4,4-difluorocyclohexyl)methyl]-2-(trideuteriomethyl)pyrazole-3-carboxamide] |  | 158 nM | 79.4 nM |
| Cc1nonc1C(=O)N[C@H](c1nc2c(F)c(C3(C(=O)N4CC(F)(F)C(F)(F)C4)CCOCC3)ccc2[nH]1)C1CCC(F)(F)CC1 [Example 19, N—[(S)-(4,4-Difluorocyclohexyl){4-fluoro-5-[4-(3,3,4,4-tetrafluoropyrrolidine-1-carbonyl)tetrahydropyran-4-yl]-1H-benzimidazol-2-yl}methyl]-4-methyl-1,2,5-oxadiazole-3-carboxamide] | 3.98 nM | 12.6 nM |  |
| Cc1nonc1C(=O)N[C@H](c1nc2c(F)c(C3(C(=O)N4CC(F)(F)C4)CCC(F)(F)CC3)ccc2[nH]1)C1CCC(F)(F)CC1 [Example 23, N—[(S)-{5-[1-(3,3-Difluoroazetidine-1-carbonyl)-4,4-difluorocyclohexyl]-4-fluoro-1H-benzimidazol-2-yl}(4,4-difluorocyclohexyl)methyl]-4-methyl-1,2,5-oxadiazole-3-carboxamide] | 10 nM | 20 nM |  |
| Cc1nonc1C(=O)N[C@H](c1nc2nc(C3(C(=O)NCC4CC4(F)F)CCOCC3)ccc2[nH]1)C1CCC(F)(F)CC1 (stereo partly drawn) [Example 24, N—[(S)-(4,4-Difluorocyclohexyl)(5-{4-[(2,2-difluorocyclopropyl)methylcarbamoyl]-tetrahydropyran-4-yl}-1H-imidazo[4,5-b]pyridin-2-yl)methyl]-4-methyl-1,2,5-oxadiazole-3-carboxamide] | 6.31 nM | 25.1 nM |  |
